Data from patent publication US20210361618A1, “TRIPLET COMBINATION FORMULATIONS AND METHODS FOR TREATING OR REDUCING THE RISK OF CARDIOVASCULAR DISEASE” (priority 2017, published 2021).

Assays:
LDL-C = experiment: Integrated analysis of six Phase 2 studies of Bempedoic acid; format: in vivo, human; settings: for LDL-C placebo-adjusted LS means for percent change from baseline: integrated analysis of six Phase 2 studies
Procedure: Doses of Bempedoic acid ranging from 40 to 240 mg/day have been evaluated in the Phase 2 program. Based on data from the integrated analysis of safety and efficacy, observed values and percent change from baseline in the primary efficacy endpoint, LDL-C, together with a positive safety profile, support the choice of the 180-mg dose for the Phase 3 studies. […] Overall, balancing efficacy and safety, the 180-mg dose was chosen for the Phase 3 program.

patients = experiment: Phase 1 and 2 clinical trials of bempedoic acid: adverse events of special interest; format: in vivo, human; settings: Phase 1 or 2 clinical trials to date
monkey = experiment: Preclinical monkey studies (hypoglycemia and metabolic acidosis)

SMILES: CC(C)(CCCCCC(O)CCCCCC(C)(C)C(=O)O)C(=O)O [Bempedoic acid, 8-hydroxy-2,2,14,14 tetramethylpentadecanedioic acid]
- safety profile of the 180-mg dose (LDL-C; Phase 2 program, 180 mg): excellent safety profile
- LDL-C placebo-adjusted LS means for percent change from baseline (LDL-C; 180 mg on top of stable statin therapy): ~22%
- LDL-C placebo-adjusted LS means for percent change from baseline (LDL-C; Bempedoic acid 180 mg, monotherapy or with Ezetimibe 10 mg): approximately 32%
- cases of hypoglycemia or metabolic acidosis (patients): No cases
- outcome of hypoglycemia and metabolic acidosis (monkey): monkey deaths
